The test addresses T1, mtIF2 (in mtPIC-2, mtSSU-mtIF2-mtIF3) (Homo sapiens, UniProt P46199).
T1 construct: mature mtIF2 residues 38-727, codon-optimized, pET-24b, E. coli Rosetta 2, Ni resin (His-tag implied) and gel filtration; with Translation initiation factor IF-3, mitochondrial
Put plainly: cryo-EM structure. Type of test: binding. The conditions noted are these: GTPase G-domain site, preactive state; mtIF2 (1 uM) preincubated with 2.5 mM GDPNP; mtSSU-mtIF3 bound; 25 mM HEPES-KOH pH 7.5, 5 mM Mg(OAc)2, 100 mM KCl; 3.1 A map.

Consider `Nc1nc2c(ncn2[C@@H]2O[C@H](COP(=O)(O)OP(=O)(O)NP(=O)(O)O)[C@@H](O)[C@H]2O)c(=O)[nH]1` [GDPNP], for which the cryo-EM structure entry is listed as “The G-domain-bound GDPNP is found in close proximity to the mtIF2-domain III”.

The record behind these values is PMC7287080, “Distinct pre-initiation steps in human mitochondrial translation” (Nature Communications, 2020).
